Key:
Format in all cases: in vivo
[1] = system: Veronica persica; experiment: Test Example 5: herbicidal effect by foliage application, plastic box (symbol R); details: 320 g/ha, 3 weeks after application
In short: (§1)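 Effect is rated 3 weeks after a foliar spray of water-diluted emulsion concentrate at a predetermined herbicide amount. Plants had grown 14 days in a 25° C. to 30° C. greenhouse from seed in sterilized diluvial soil.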

[2] = system: Avena fatua; experiment: Test Example 4: herbicidal effect by soil treatment (symbol I)
In short: (§2)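 Seeds were sown in sterilized diluvial soil, covered with about 1.5 cm of soil, and the soil surface was sprayed with a water-diluted emulsion of the compound at a predetermined rate. Plants grew in a greenhouse at 25° C. to 30° C.; effects were scored visually 3 weeks after application.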

[3] = system: wheat; experiment: Test Example 4: effect on crop by soil treatment (symbol e); details: for e: wheat, effect on crop grade: application herbicide amount 320 g/ha
In short: (§3)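 Seeds were sown in spots on sterilized diluvial soil in a plastic box and covered with about 1.5 cm of soil. Plants were then grown in a greenhouse at 25° C. to 30° C.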

[4] = system: Digitaria ciliaris; experiment: Test Example 5: herbicidal effect by foliage application, plastic box (symbol F); details: 320 g/ha, 3 weeks after application
In short: as §1

[5] = system: Apera spica-venti; experiment: Test Example 4: herbicidal effect by soil treatment (symbol L); details: application herbicide amount 320 g/ha
In short: as §2

[6] = system: rapeseed; experiment: Test Example 4: effect on crop by soil treatment (symbol g); details: for g: rapeseed, effect on crop grade: application herbicide amount 320 g/ha
In short: as §3

[7] = system: Veronica persica; experiment: Test Example 4: herbicidal effect by soil treatment (symbol R)
In short: as §2

[8] = system: rice plant; experiment: Test Example 5: effect on crop by foliage application, plastic box (symbol b); details: 320 g/ha, 3 weeks after application
In short: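 Greenhouse test at 25° C. to 30° C. Seeds of crops and weeds were spot-sown in boxes of sterilized diluvial soil under roughly 1.5 cm soil cover, then grown for foliage treatment.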

[9] = system: Monochoria vaginalis; experiment: Test Example 2: herbicidal activity, application during weed generation in submerged conditions (symbol C); details: Table 23; application herbicide amount 320 g/ha; grade 0-5 by criteria of Test Example 1
In short: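 Scoring of herbicidal effect took place 3 weeks after treatment, using the criteria of the earlier test. Treatment was water-surface application of diluted emulsifiable compound at a set dose. Plants were at one- to two-leaf stage in submerged alluvial soil (4 cm depth), greenhouse 25-30° C.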

[10] = system: Galium spurium; experiment: Test Example 5: herbicidal effect by foliage application, plastic box (symbol Q); details: 320 g/ha, 3 weeks after application
In short: as §1

[11] = system: Echinochloa crus-galli var. crus-galli; experiment: Test Example 3: herbicidal effect by foliage application, Wagner pot (symbol H); details: application herbicide amount 320 g/ha
In short: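 Foliar spray of a water-diluted emulsion at a predetermined herbicide amount, applied to 14-day-old plants. Seedlings were raised in flooded alluvial soil (0.1–0.5 cm water) at 25–30 °C in a greenhouse. Injury was rated after 3 weeks against fixed criteria.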

[12] = system: Stellaria media; experiment: Test Example 4: herbicidal effect by soil treatment (symbol P)
In short: as §2

[13] = application herbicide amount 320 g/ha

## CON=C(C)CC1CC(O)=C(c2c(C)cc(-c3ccc(Cl)cc3)cc2C)C1=O (mixture of isomers) [6-029]
[1]
  R: Veronica persica, herbicidal effect grade: 4 (Herbicidal ratio of 70% or higher and lower than 90%)
[2]; [13]
  I: Avena fatua, herbicidal effect grade: 4 (Herbicidal ratio of 70% or higher and lower than 90%)
[3]
  e: wheat, effect on crop grade: 4 (Herbicidal ratio of 70% or higher and lower than 90%)
[4]
  F: Digitaria ciliaris, herbicidal effect grade: 5 (Herbicidal ratio of 90% or more (almost completely withered))
[5]
  L: Apera spica-venti, herbicidal effect grade: 5 (Herbicidal ratio of 90% or more (almost completely withered))
[6]
  g: rapeseed, effect on crop grade: 2 (Herbicidal ratio of 20% or higher and lower than 40%)
[7]; [13]
  R: Veronica persica, herbicidal effect grade: 4 (Herbicidal ratio of 70% or higher and lower than 90%)
[8]
  b: directly sowed rice plant, effect on crop grade: 5 (Herbicidal ratio of 90% or more (almost completely withered))
[9]
  Herbicidal effect grade, C: Monochoria vaginalis: 2 (Herbicidal ratio of 20% or higher and lower than 40%)
[10]
  Q: Galium spurium, herbicidal effect grade: 5 (Herbicidal ratio of 90% or more (almost completely withered))
[11]
  herbicidal effect on H (Echinochloa crus-galli var. crus-galli), grade 0-5: 5 (Herbicidal ratio of 90% or more (almost completely withered))

## C=Cc1cc(C)c(C2=C(O)CC(CC(C)=NOC)C2=O)c(C)c1 (mixture of isomers) [6-031]
[1]
  R: Veronica persica, herbicidal effect grade: 1 (Herbicidal ratio of 5% or higher and lower than 20%)
[2]; [13]
  I: Avena fatua, herbicidal effect grade: 0 (Herbicidal ratio of 5% or lower (almost no effect))
[3]
  e: wheat, effect on crop grade: 0 (Herbicidal ratio of 5% or lower (almost no effect))
[4]
  F: Digitaria ciliaris, herbicidal effect grade: 5 (Herbicidal ratio of 90% or more (almost completely withered))
[5]
  L: Apera spica-venti, herbicidal effect grade: 0 (Herbicidal ratio of 5% or lower (almost no effect))
[6]
  g: rapeseed, effect on crop grade: 3 (Herbicidal ratio of 40% or higher and lower than 70%)
[7]; [13]
  R: Veronica persica, herbicidal effect grade: 0 (Herbicidal ratio of 5% or lower (almost no effect))
[8]
  b: directly sowed rice plant, effect on crop grade: 5 (Herbicidal ratio of 90% or more (almost completely withered))
[9]
  Herbicidal effect grade, C: Monochoria vaginalis: 0 (Herbicidal ratio of 5% or lower (almost no effect))
[12]; [13]
  P: Stellaria media, herbicidal effect grade: 0 (Herbicidal ratio of 5% or lower (almost no effect))
[11]
  herbicidal effect on H (Echinochloa crus-galli var. crus-galli), grade 0-5: 3 (Herbicidal ratio of 40% or higher and lower than 70%)

## CON=C(C)CC1CC(OS(=O)(=O)c2ccc(C)cc2)=C(c2c(C)cc(C)cc2C)C1=O (stereo not shown) [1-161]
[1]
  R: Veronica persica, herbicidal effect grade: 0 (Herbicidal ratio of 5% or lower (almost no effect))
[2]; 320 g/ha
  I: Avena fatua, herbicidal effect grade: 0 (Herbicidal ratio of 5% or lower (almost no effect))
[3]; 320 g/ha
  e: wheat, effect grade on crop: 3 (Herbicidal ratio of 40% or higher and lower than 70%)
[4]
  F: Digitaria ciliaris, herbicidal effect grade: 4 (Herbicidal ratio of 70% or higher and lower than 90%)
[6]; 320 g/ha
  g: rapeseed, effect grade on crop: 2 (Herbicidal ratio of 20% or higher and lower than 40%)
[7]; 320 g/ha
  R: Veronica persica, herbicidal effect grade: 0 (Herbicidal ratio of 5% or lower (almost no effect))
[8]
  b: directly sowed rice plant, effect on crop grade: 3 (Herbicidal ratio of 40% or higher and lower than 70%)
[9]
  Herbicidal effect grade, C: Monochoria vaginalis: 3 (Herbicidal ratio of 40% or higher and lower than 70%)
[10]
  Q: Galium spurium, herbicidal effect grade: 0 (Herbicidal ratio of 5% or lower (almost no effect))
[12]; 320 g/ha
  P: Stellaria media, herbicidal effect grade: 0 (Herbicidal ratio of 5% or lower (almost no effect))
[11]
  herbicidal effect on H (Echinochloa crus-galli var. crus-galli), grade 0-5: 4 (Herbicidal ratio of 70% or higher and lower than 90%)

## CCCC(=O)C(C(=O)OC)C1CC(O)=C(c2c(C)cc(C)cc2C)C1=O (stereo not shown) [2-020]
[1]
  R: Veronica persica, herbicidal effect grade: 0 (Herbicidal ratio of 5% or lower (almost no effect))
[2]; [13]
  I: Avena fatua, herbicidal effect grade: 0 (Herbicidal ratio of 5% or lower (almost no effect))
[3]
  e: wheat, effect on crop grade: 0 (Herbicidal ratio of 5% or lower (almost no effect))
[4]
  F: Digitaria ciliaris, herbicidal effect grade: 3 (Herbicidal ratio of 40% or higher and lower than 70%)
[5]
  L: Apera spica-venti, herbicidal effect grade: 0 (Herbicidal ratio of 5% or lower (almost no effect))
[6]
  g: rapeseed, effect on crop grade: 0 (Herbicidal ratio of 5% or lower (almost no effect))
[7]; [13]
  R: Veronica persica, herbicidal effect grade: 0 (Herbicidal ratio of 5% or lower (almost no effect))
[8]
  b: directly sowed rice plant, effect on crop grade: 4 (Herbicidal ratio of 70% or higher and lower than 90%)
[9]
  Herbicidal effect grade, C: Monochoria vaginalis: 0 (Herbicidal ratio of 5% or lower (almost no effect))
[11]
  herbicidal effect on H (Echinochloa crus-galli var. crus-galli), grade 0-5: 2 (Herbicidal ratio of 20% or higher and lower than 40%)

## Cc1cc(C)c(C2=C(O)CC(CC(=O)C(C)(C)C)C2=O)c(C)c1 (stereo not shown) [2-022]
[1]
  R: Veronica persica, herbicidal effect grade: 0 (Herbicidal ratio of 5% or lower (almost no effect))
[2]; [13]
  I: Avena fatua, herbicidal effect grade: 0 (Herbicidal ratio of 5% or lower (almost no effect))
[3]
  e: wheat, effect on crop grade: 0 (Herbicidal ratio of 5% or lower (almost no effect))
[4]
  F: Digitaria ciliaris, herbicidal effect grade: 0 (Herbicidal ratio of 5% or lower (almost no effect))
[5]
  L: Apera spica-venti, herbicidal effect grade: 0 (Herbicidal ratio of 5% or lower (almost no effect))
[6]
  g: rapeseed, effect on crop grade: 0 (Herbicidal ratio of 5% or lower (almost no effect))
[7]; [13]
  R: Veronica persica, herbicidal effect grade: 0 (Herbicidal ratio of 5% or lower (almost no effect))
[8]
  b: directly sowed rice plant, effect on crop grade: 5 (Herbicidal ratio of 90% or more (almost completely withered))
[9]
  Herbicidal effect grade, C: Monochoria vaginalis: 0 (Herbicidal ratio of 5% or lower (almost no effect))
[12]; [13]
  P: Stellaria media, herbicidal effect grade: 0 (Herbicidal ratio of 5% or lower (almost no effect))
[11]
  herbicidal effect on H (Echinochloa crus-galli var. crus-galli), grade 0-5: 1 (Herbicidal ratio of 5% or higher and lower than 20%)

## CCC(=O)CCC1CC(OC)=C(c2c(C)cc(C)cc2C)C1=O (stereo not shown) [5-002]
[2]; [13]
  I: Avena fatua, herbicidal effect grade: 0 (Herbicidal ratio of 5% or lower (almost no effect))
[3]
  e: wheat, effect on crop grade: 0 (Herbicidal ratio of 5% or lower (almost no effect))
[4]
  F: Digitaria ciliaris, herbicidal effect grade: 0 (Herbicidal ratio of 5% or lower (almost no effect))
[5]
  L: Apera spica-venti, herbicidal effect grade: 0 (Herbicidal ratio of 5% or lower (almost no effect))
[7]; [13]
  R: Veronica persica, herbicidal effect grade: 0 (Herbicidal ratio of 5% or lower (almost no effect))
[8]
  b: directly sowed rice plant, effect on crop grade: 0 (Herbicidal ratio of 5% or lower (almost no effect))
[9]
  Herbicidal effect grade, C: Monochoria vaginalis: 0 (Herbicidal ratio of 5% or lower (almost no effect))
[10]
  Q: Galium spurium, herbicidal effect grade: 0 (Herbicidal ratio of 5% or lower (almost no effect))
[11]
  herbicidal effect on H (Echinochloa crus-galli var. crus-galli), grade 0-5: 0 (Herbicidal ratio of 5% or lower (almost no effect))

## CCc1cc(Br)cc(C)c1C1=C(O)CC(C(C(=O)OC)C(C)=NOC)C1=O (stereo not shown) [6-002]
[1]
  R: Veronica persica, herbicidal effect grade: 0 (Herbicidal ratio of 5% or lower (almost no effect))
[2]; [13]
  I: Avena fatua, herbicidal effect grade: 0 (Herbicidal ratio of 5% or lower (almost no effect))
[3]
  e: wheat, effect on crop grade: 0 (Herbicidal ratio of 5% or lower (almost no effect))
[4]
  F: Digitaria ciliaris, herbicidal effect grade: 5 (Herbicidal ratio of 90% or more (almost completely withered))
[5]
  L: Apera spica-venti, herbicidal effect grade: 4 (Herbicidal ratio of 70% or higher and lower than 90%)
[6]
  g: rapeseed, effect on crop grade: 0 (Herbicidal ratio of 5% or lower (almost no effect))
[8]
  b: directly sowed rice plant, effect on crop grade: 5 (Herbicidal ratio of 90% or more (almost completely withered))
[9]
  Herbicidal effect grade, C: Monochoria vaginalis: 0 (Herbicidal ratio of 5% or lower (almost no effect))
[10]
  Q: Galium spurium, herbicidal effect grade: 0 (Herbicidal ratio of 5% or lower (almost no effect))
[12]; [13]
  P: Stellaria media, herbicidal effect grade: 0 (Herbicidal ratio of 5% or lower (almost no effect))
[11]
  herbicidal effect on H (Echinochloa crus-galli var. crus-galli), grade 0-5: 4 (Herbicidal ratio of 70% or higher and lower than 90%)

## CON=C(C)CC1CC(O)=C(c2c(C)cc(Br)cc2C)C1=O (stereo not shown) [6-003]
[1]
  R: Veronica persica, herbicidal effect grade: 0 (Herbicidal ratio of 5% or lower (almost no effect))
[2]; [13]
  I: Avena fatua, herbicidal effect grade: 3 (Herbicidal ratio of 40% or higher and lower than 70%)
[3]
  e: wheat, effect on crop grade: 0 (Herbicidal ratio of 5% or lower (almost no effect))
[4]
  F: Digitaria ciliaris, herbicidal effect grade: 5 (Herbicidal ratio of 90% or more (almost completely withered))
[5]
  L: Apera spica-venti, herbicidal effect grade: 5 (Herbicidal ratio of 90% or more (almost completely withered))
[6]
  g: rapeseed, effect on crop grade: 4 (Herbicidal ratio of 70% or higher and lower than 90%)
[8]
  b: directly sowed rice plant, effect on crop grade: 5 (Herbicidal ratio of 90% or more (almost completely withered))
[9]
  Herbicidal effect grade, C: Monochoria vaginalis: 3 (Herbicidal ratio of 40% or higher and lower than 70%)
[10]
  Q: Galium spurium, herbicidal effect grade: 3 (Herbicidal ratio of 40% or higher and lower than 70%)
[12]; [13]
  P: Stellaria media, herbicidal effect grade: 0 (Herbicidal ratio of 5% or lower (almost no effect))
[11]
  herbicidal effect on H (Echinochloa crus-galli var. crus-galli), grade 0-5: 5 (Herbicidal ratio of 90% or more (almost completely withered))
